Laboratory results: PubChem BioAssay (NCI)
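In this assay, cells in 96-well plates receive the compound at five concentrations for 48 hours. Endpoints are linearly interpolated between the surrounding concentrations. Abbreviation: GI50, concentration required for 50% inhibition of growth. TGI denotes the concentration required for complete inhibition of growth.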

Tests used:
Test in all cases: DTP human tumour cell line panel, 48 h
[1] = test system: T-47D breast
[2] = test system: RXF 393 renal
[3] = test system: BT-549 breast
[4] = test system: ACHN renal
[5] = test system: SK-OV-3 ovarian
[6] = test system: HOP-62 NSCLC
[7] = test system: OVCAR-5 ovarian
[8] = test system: SW-620 colon
[9] = test system: HCT-15 colon
[10] = test system: SF-268 CNS
[11] = test system: IGROV1 ovarian
[12] = test system: K-562 leukemia
[13] = test system: SN12C renal
[14] = test system: MDA-MB-435
[15] = test system: MDA-MB-231 breast
[16] = test system: HS 578T breast
[17] = test system: KM12 colon
[18] = test system: OVCAR-8 ovarian
[19] = test system: SR leukemia
[20] = test system: SK-MEL-5 melanoma
[21] = test system: RPMI-8226 leukemia
[22] = test system: EKVX NSCLC
[23] = test system: HT29 colon
[24] = test system: SNB-19 CNS
[25] = test system: NCI-H522 lung
[26] = test system: NCI-H226 lung
[27] = test system: UACC-62 melanoma
[28] = test system: PC-3 prostate
[29] = test system: MCF7 breast
[30] = test system: CAKI-1 renal
[31] = test system: OVCAR-3 ovarian
[32] = test system: HOP-92 NSCLC
[33] = test system: A498 renal
[34] = test system: OVCAR-4 ovarian
[35] = test system: SF-539 CNS
[36] = test system: SK-MEL-2 melanoma
[37] = test system: SNB-75 CNS
[38] = test system: NCI-H460 lung
[39] = test system: MOLT-4 leukemia
[40] = test system: LOX IMVI melanoma
[41] = test system: 786-0 renal
[42] = test system: CCRF-CEM leukemia
[43] = test system: SF-295 CNS
[44] = test system: NCI-H23 lung
[45] = test system: COLO 205 colon
[46] = test system: M14 melanoma
[47] = test system: DU-145 prostate
[48] = test system: UACC-257 melanoma
[49] = test system: MALME-3M melanoma
[50] = test system: SK-MEL-28 melanoma
[51] = test system: U251 CNS
[52] = test system: UO-31 renal
[53] = test system: HCC-2998 colon
[54] = test system: HCT-116 colon
[55] = test system: NCI/ADR-RES ovarian

**Q.** What does the source list for `CCOC(=O)N1CCC(N=C2CSc3nnc(-c4cc(C(F)(F)F)cc(C(F)(F)F)c4)n3N2)CC1`?
**A.** GI50 [1]: 2.6 µM; TGI [1]: 6.82 µM; GI50 [2]: 1.57 µM; TGI [2]: 3.08 µM; GI50 [3]: 1.89 µM; TGI [3]: 3.79 µM; GI50 [4]: 2.53 µM; TGI [4]: 5.99 µM; GI50 [5]: 3.21 µM; TGI [5]: 8.71 µM; GI50 [6]: 2.17 µM; TGI [6]: 4.03 µM; GI50 [7]: 1.95 µM; TGI [7]: 4 µM; GI50 [8]: 2.09 µM; TGI [8]: 4.27 µM; GI50 [9]: 2.29 µM; TGI [9]: 5.4 µM; GI50 [10]: 2.23 µM; TGI [10]: 4.86 µM; GI50 [11]: 1.9 µM; TGI [11]: 4.79 µM; GI50 [12]: 2.88 µM; TGI [12]: 6.92 µM; GI50 [13]: 1.7 µM; TGI [13]: 3.57 µM; GI50 [14]: 1.58 µM; TGI [14]: 3 µM; GI50 [15]: 1.81 µM; TGI [15]: 3.56 µM; GI50 [16]: 2.31 µM; TGI [16]: 6.4 µM; GI50 [17]: 2.04 µM; TGI [17]: 3.95 µM; GI50 [18]: 2.44 µM; TGI [18]: 6.25 µM; GI50 [19]: 2.39 µM; TGI [19]: 6.23 µM; GI50 [20]: 1.61 µM; TGI [20]: 3 µM; GI50 [21]: 2.54 µM; TGI [21]: 7.11 µM; GI50 [22]: 1.77 µM; TGI [22]: 5.43 µM; GI50 [23]: 1.97 µM; TGI [23]: 3.65 µM; GI50 [24]: 3.14 µM; TGI [24]: 11.9 µM; GI50 [25]: 2.27 µM; TGI [25]: 4.61 µM; GI50 [26]: 2.16 µM; TGI [26]: 5.02 µM; GI50 [27]: 1.64 µM; TGI [27]: 3.36 µM; GI50 [28]: 2.2 µM; TGI [28]: 6.27 µM; GI50 [29]: 2.05 µM; TGI [29]: 4.98 µM; GI50 [30]: 2.04 µM; TGI [30]: 5.97 µM; GI50 [31]: 2.01 µM; TGI [31]: 3.59 µM; GI50 [32]: 1.97 µM; TGI [32]: 5 µM; GI50 [33]: 1.94 µM; TGI [33]: 5.52 µM; GI50 [34]: 1.86 µM; TGI [34]: 5.49 µM; GI50 [35]: 2.06 µM; TGI [35]: 3.88 µM; GI50 [36]: 2 µM; TGI [36]: 3.6 µM; GI50 [37]: 1.92 µM; TGI [37]: 5.54 µM; GI50 [38]: 2.11 µM; TGI [38]: 4.1 µM; GI50 [39]: 2.57 µM; TGI [39]: 5.31 µM; GI50 [40]: 1.77 µM; TGI [40]: 3.45 µM; GI50 [41]: 2.18 µM; TGI [41]: 5.21 µM; GI50 [42]: 2.01 µM; TGI [42]: 5.28 µM; GI50 [43]: 1.51 µM; TGI [43]: 3.08 µM; GI50 [44]: 2.66 µM; TGI [44]: 8.37 µM; GI50 [45]: 2.17 µM; TGI [45]: 3.93 µM; GI50 [46]: 1.95 µM; TGI [46]: 3.54 µM; GI50 [47]: 2.39 µM; TGI [47]: 6.17 µM; GI50 [48]: 1.76 µM; TGI [48]: 3.81 µM; GI50 [49]: 1.68 µM; TGI [49]: 3.31 µM; GI50 [50]: 1.87 µM; TGI [50]: 3.75 µM; GI50 [51]: 1.77 µM; TGI [51]: 3.53 µM; GI50 [52]: 1.66 µM; TGI [52]: 5.4 µM; GI50 [53]: 2.25 µM; TGI [53]: 4.78 µM; GI50 [54]: 1.9 µM; TGI [54]: 3.7 µM; GI50 [55]: 2.58 µM; TGI [55]: 8.08 µM
